From PubChem BioAssay AID1259407 (Chemical Carcinogenesis Research Information System (CCRIS), 2018)
Activity calls are given as the source filed them. No rule for the calls is given here.

System: CCRIS mutagenicity, Ames/micronucleus/aberration tests
Assay: CCRIS mutagenicity studies
Settings: Test System: AMES SALMONELLA TYPHIMURIUM, Method: PREINCUBATION

**Q.** Which mutagenic call (Strain/Indicator: TA98, Metabolic Activation: MAIZE SEEDLING, S-14) does the source give for `O=C1NCNC(=O)N1` here?
**A.** active; positive

**Q.** And the mutagenic call (Strain/Indicator: TA98, Metabolic Activation: MOUSE, LIVER, S-9)?
**A.** active; positive

**Q.** What about the mutagenic call (Strain/Indicator: TA98, Metabolic Activation: NONE) of the same compound?
**A.** inactive; negative

**Q.** What about the mutagenic call (Strain/Indicator: TA100, Metabolic Activation: MAIZE SEEDLING, S-14) of the same compound?
**A.** active; positive

**Q.** What about the mutagenic call (Strain/Indicator: TA100, Metabolic Activation: MOUSE, LIVER, S-9) of the same compound?
**A.** inactive; negative

**Q.** And the mutagenic call (Strain/Indicator: TA100, Metabolic Activation: NONE)?
**A.** inactive; negative

**Q.** And the mutagenic call (Strain/Indicator: TA1535, Metabolic Activation: NONE)?
**A.** inactive; negative

**Q.** What about the mutagenic call (Strain/Indicator: TA1537, Metabolic Activation: NONE) of the same compound?
**A.** inactive; negative

**Q.** And the mutagenic call (Strain/Indicator: TA1538, Metabolic Activation: NONE)?
**A.** inactive; negative
